Source: US10703756B2, “Pyrrolo[2,3-D]pyrimidinyl, pyrrolo[2,3-B]pyrazinyl, pyrrolo[2,3-B]pyridinyl acrylamides and epoxides thereof” (Pfizer Inc., priority 2015, dated 2020)

What was measured:
[1] = system: IL-15 induced P-STAT5 in human PBMC; test: PBMC IL-15 Induced P-STAT5; type: cell-based; conditions: human PBMC, IL-15 final 41 ng/mL; read-out: PBMC IL15_pSTAT5_IC50
How it was run: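 Thawed human PBMC, rested in human plasma, were preincubated 15 min at 37 °C with compound (0.2% DMSO), then stimulated 15 min with IL-15 at 41 ng/mL final. After paraformaldehyde fixation and methanol permeabilisation, Alexa Fluor 647 anti-STAT5 staining overnight at 4 °C was analysed by flow cytometry on total lymphocytes.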

JAK3 enzyme [2] = molecular target: T1, JAK3 enzyme (Homo sapiens, UniProt P52333); test: JAK Caliper Enzyme Assay at 4 μM ATP; type: biochemical
T1 sequence (P52333 1-1124): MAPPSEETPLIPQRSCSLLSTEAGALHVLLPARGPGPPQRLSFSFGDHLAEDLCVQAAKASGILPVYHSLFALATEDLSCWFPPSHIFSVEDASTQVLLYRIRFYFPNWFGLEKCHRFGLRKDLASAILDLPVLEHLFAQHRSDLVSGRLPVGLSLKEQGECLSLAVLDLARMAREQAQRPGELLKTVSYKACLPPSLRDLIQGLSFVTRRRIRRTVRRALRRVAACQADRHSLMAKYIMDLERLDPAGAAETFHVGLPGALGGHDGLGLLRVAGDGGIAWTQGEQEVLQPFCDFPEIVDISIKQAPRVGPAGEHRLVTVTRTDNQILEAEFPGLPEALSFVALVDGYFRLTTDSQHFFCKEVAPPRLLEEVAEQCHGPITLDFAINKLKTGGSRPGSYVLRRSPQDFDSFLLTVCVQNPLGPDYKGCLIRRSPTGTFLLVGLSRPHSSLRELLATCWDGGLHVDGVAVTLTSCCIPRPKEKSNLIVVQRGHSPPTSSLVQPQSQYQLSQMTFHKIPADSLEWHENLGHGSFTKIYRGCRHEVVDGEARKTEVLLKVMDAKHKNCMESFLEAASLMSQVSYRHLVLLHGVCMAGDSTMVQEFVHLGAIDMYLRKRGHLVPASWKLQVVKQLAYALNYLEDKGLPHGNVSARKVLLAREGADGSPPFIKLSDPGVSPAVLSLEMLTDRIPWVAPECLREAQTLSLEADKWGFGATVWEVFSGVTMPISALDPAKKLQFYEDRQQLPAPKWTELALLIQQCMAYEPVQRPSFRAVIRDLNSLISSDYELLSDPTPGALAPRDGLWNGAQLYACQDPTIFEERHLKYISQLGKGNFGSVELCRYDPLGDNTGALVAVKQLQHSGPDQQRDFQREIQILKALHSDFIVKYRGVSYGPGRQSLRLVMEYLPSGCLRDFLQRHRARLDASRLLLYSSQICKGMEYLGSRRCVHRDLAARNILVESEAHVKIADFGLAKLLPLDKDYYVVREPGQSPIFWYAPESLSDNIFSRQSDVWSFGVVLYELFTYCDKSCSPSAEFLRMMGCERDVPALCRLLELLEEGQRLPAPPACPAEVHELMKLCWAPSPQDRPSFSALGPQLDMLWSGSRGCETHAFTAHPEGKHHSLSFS
How it was run: (§1)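 Test compounds were diluted in DMSO as an 11-point half-log series from a 600 μM top concentration (DMSO series, not final assay level). Enzyme amount and incubation time were set per enzyme prep to reach 20%-30% phosphorylation. Phosphorylated and unphosphorylated peptide were resolved by microfluidic separation.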

[3] = system: IL-15 induced STAT5 phosphorylation in human whole blood lymphocytes; test: HWB IL-15 Induced STAT5 Phosphorylation Assay; type: cell-based; conditions: Lymphocyte, IL-15 final 50 ng/ml, read-out: HWB_IL15 pSTAT5 IC50
Protocol: HWB IL-15 Induced STAT5 Phosphorylation Assay
After serial dilution of the test compounds 1:2 in DMSO at desired concentration (500× of final), the compounds were further diluted in PBS (by adding 4 μL compound/DMSO in 96 μL PBS, [DMSO]=4%, 20× final). To 96-well polypropylene plates were added 90 μl HWB (heparin treated Human Whole Blood)/well, followed by 5 μl/well 4% DMSO in D-PBS or various concentrations of 20× inhibitor in 4% DMSO in D-PBS (w/o Ca^+2 or Mg^+2) to give 1× in 0.2% DMSO. After mixing and incubating for 45 minutes at 37° C., 5 μl D-PBS (unstimulated control) or 20× stocks of 5 μl human IL-15 (final concentration is 50 ng/ml) were added, and mixed three times. After incubating 15 minutes at 37° C., 1× Lyse/Fix Buffer (BD Phosflow 5× Lyse/Fix Buffer) was added to all wells at 1000 μl/well, then incubated for 20 minutes at 37° C. and spun 5 mins at 1200 rpm. After washing in 1000 μl FACS buffer 1× and spinning for 5 mins at 1200 rpm, 400 μl ice cold Perm Buffer III were added to each well. After mixing gently (1-2×) and incubating on ice for 30 minutes, spinning for 5 mins at 1200 rpm without interruption, and washing 1× in cold […] FACS buffer (D-PBS containing 0.1% BSA and 0.1% sodium azide) 250 μl/well of the desired AlexaFluor647-conjugated anti-phospho STATS antibody at 1:125 dilution in FACS buffer was added. Following incubating at 4° C. over night, all the samples were transferred to 96-well polypropylene U-bottom plate, and checked by flow cytometry gated on total lymphocytes.

JAK3 enzyme [4] = molecular target: T1, JAK3 enzyme; test: JAK Caliper Enzyme Assay at 1 mM ATP; type: biochemical
How it was run: as §1

| Structure (SMILES) | IC50 [1] | IC50 (JAK3 enzyme [2]) | IC50 [3] | IC50 (JAK3 enzyme [4]) |
| --- | --- | --- | --- | --- |
| C=CC(=O)N1CCC(Nc2cnc3[nH]cc(C(=O)NCc4scnc4C(F)(F)F)c3n2)CC1 [Example 185, 2-[(1-acryloylpiperidin-4-yl)amino]-N-{[4-(trifluoromethyl)-1,3-thiazol-5-yl]methyl}-5H-pyrrolo[2,3-b]pyrazine-7-carboxamide] | 73 nM | 0.372 nM | 542 nM | 6 nM |
| C=CC(=O)N1CCC(Oc2cnc3[nH]cc(C(=O)N[C@@H]4CC[C@H](F)C4)c3n2)CC1 [Example 199, 2-[(1-acryloylpiperidin-4-yl)oxy]-N-[(1R,3S)-3-fluorocyclopentyl]-5H-pyrrolo[2,3-b]pyrazine-7-carboxamide] | 250 nM | 0.414 nM | 2020 nM | 47 nM |
| C=CC(=O)N1CCN(c2cnc3[nH]cc(C(=O)NCC4CCCC4)c3n2)CC1 [Example 266, 2-(4-acryloylpiperazin-1-yl)-N-(cyclopentylmethyl)-5H-pyrrolo[2,3-b]pyrazine-7-carboxamide] | 64.2 nM | 0.2 nM | 528 nM | 22 nM |
| C=CC(=O)N1CCC(Nc2cnc3[nH]cc(C(=O)NCc4ccc(OC)cc4)c3n2)CC1 [Example 191, 2-[(1-acryloylpiperidin-4-yl)amino]-N-(4-methoxybenzyl)-5H-pyrrolo[2,3-b]pyrazine-7-carboxamide] | 137 nM | 0.484 nM | 778 nM | 9 nM |
| C=CC(=O)N1CCN(c2cnc3[nH]cc(C(=O)NC4CCCC4)c3n2)CC1 (racemic) [Example 292, Racemic-2-(4-acryloylpiperazin-1-yl)-N-cyclopentyl-5H-pyrrolo[2,3-b]pyrazine-7-carboxamide] | 27.7 nM | 0.315 nM | 841 nM | 17 nM |
| C=CC(=O)N1CCN(c2cnc3[nH]cc(C(=O)NCC(C)(C)C)c3n2)C[C@@H]1CC(C)C [Example 330, 2-[(3S)-4-acryloyl-3-(2-methylpropyl)piperazin-1-yl]-N-(2,2-dimethylpropyl)-5H-pyrrolo[2,3-b]pyrazine-7-carboxamide] | 122 nM | 0.287 nM | 1970 nM | 45 nM |
| C=CC(=O)N1CCC(Nc2cnc3[nH]cc(C(=O)NCC(F)(F)C(F)(F)F)c3n2)CC1 [Example 179, 2-[(1-acryloylpiperidin-4-yl)amino]-N-(2,2,3,3,3-pentafluoropropyl)-5H-pyrrolo[2,3-b]pyrazine-7-carboxamide] | 94.8 nM | 0.596 nM | 850 nM | 18 nM |
| C=CC(=O)N1CC[C@@H](Nc2cnc3[nH]cc(C(=O)NC4CCCC4)c3n2)[C@@H](OC)C1 (racemic) [Example 299, Racemic-2-{[(3S,4R)-1-acryloyl-3-methoxypiperidin-4-yl]amino}-N-cyclopentyl-5H-pyrrolo[2,3-b]pyrazine-7-carboxamide] | 305 nM | 1.21 nM | 913 nM | 57 nM |
| C=CC(=O)N1CCN(c2cnc3[nH]cc(C(=O)NC4CCC4)c3n2)CC1 [Example 297, 2-(4-acryloylpiperazin-1-yl)-N-cyclobutyl-5H-pyrrolo[2,3-b]pyrazine-7-carboxamide] | 150 nM | 0.43 nM | 718 nM | 45 nM |
| C=CC(=O)N1CCN(c2cnc3[nH]cc(C(=O)NCCC(F)(F)F)c3n2)C[C@@H]1CC(C)C [Example 329, 2-[(3S)-4-acryloyl-3-(2-methylpropyl)piperazin-1-yl]-N-(3,3,3-trifluoropropyl)-5H-pyrrolo[2,3-b]pyrazine-7-carboxamide] | 247 nM | 0.587 nM | 6290 nM | 60 nM |
| C=CC(=O)N1CC[C@@H](Nc2cnc3[nH]cc(C(=O)NCC(F)(F)F)c3n2)[C@@H](OC)C1 [Example 317, 2-{[(3S,4R)-1-acryloyl-3-methoxypiperidin-4-yl]amino}-N-(2,2,2-trifluoroethyl)-5H-pyrrolo[2,3-b]pyrazine-7-carboxamide] | 315 nM | 0.979 nM | 835 nM | 77 nM |
| C=CC(=O)N1CCN(c2cnc3[nH]cc(C(=O)NC[C@H](C)CC(F)(F)F)c3n2)CC1 [Example 336, 2-(4-acryloylpiperazin-1-yl)-N-[(2R)-4,4,4-trifluoro-2-methylbutyl]-5H-pyrrolo[2,3-b]pyrazine-7-carboxamide] | 107 nM | 0.24 nM | 373 nM | 26 nM |
| C=CC(=O)N1CCC(Nc2cnc3[nH]cc(C(=O)NCc4sc(C)nc4C(F)(F)F)c3n2)CC1 [Example 195, 2-[(1-acryloylpiperidin-4-yl)amino]-N-{[2-methyl-4-(trifluoromethyl)-1,3-thiazol-5-yl]methyl}-5H-pyrrolo[2,3-b]pyrazine-7-carboxamide] | 82.7 nM | 0.494 nM | 688 nM | 7 nM |
| C=CC(=O)N1CC[C@H](Nc2cnc3[nH]cc(C(=O)NCCC(F)(F)F)c3n2)[C@H](OC)C1 [Example 305, 2-{[(3R,4S)-1-acryloyl-3-methoxypiperidin-4-yl]amino}-N-(3,3,3-trifluoropropyl)-5H-pyrrolo[2,3-b]pyrazine-7-carboxamide] | 278 nM | 0.496 nM | 6380 nM | 53 nM |
| C=CC(=O)N1CCC(Nc2cnc3[nH]cc(C(=O)NCC4CCC4)c3n2)CC1 [Example 193, 2-[(1-acryloylpiperidin-4-yl)amino]-N-(cyclobutylmethyl)-5H-pyrrolo[2,3-b]pyrazine-7-carboxamide] | 68.4 nM | 0.393 nM | 637 nM | 5 nM |
| C=CC(=O)N1CC[C@@H](Nc2cnc3[nH]cc(C(=O)NCCCC(F)(F)F)c3n2)[C@@H](OC)C1 [Example 308, 2-{[(3S,4R)-1-acryloyl-3-methoxypiperidin-4-yl]amino}-N-(4,4,4-trifluorobutyl)-5H-pyrrolo[2,3-b]pyrazine-7-carboxamide] | 306 nM | 0.531 nM | 775 nM | 48 nM |
| C=CC(=O)N1CCN(c2cnc3[nH]cc(C(=O)NC4CCCC4)c3n2)CC1(C)C [Example 334, 2-(4-acryloyl-3,3-dimethylpiperazin-1-yl)-N-cyclopentyl-5H-pyrrolo[2,3-b]pyrazine-7-carboxamide] | 73.6 nM | 0.703 nM | 3920 nM | 93 nM |
